Source: publication PMC10060569 (Frontiers in Pharmacology, 2023)
“And” between values parts separate entries of the source, which are not always exact repeats. Identical values can stand only once.

What was measured:
hP2X7R = target: T1, hP2X7R (Homo sapiens, UniProt Q99572); assay: TEVC of ATP4--induced currents, hP2X7R in X. laevis oocytes (modified steady-state protocol); type: cell-based; conditions: for IC50: estimated from few tested concentrations
T1 construct: expressed in transfected cells; host or cells: Xenopus laevis oocytes (cRNA injection)
T1 sequence (Q99572 1-595): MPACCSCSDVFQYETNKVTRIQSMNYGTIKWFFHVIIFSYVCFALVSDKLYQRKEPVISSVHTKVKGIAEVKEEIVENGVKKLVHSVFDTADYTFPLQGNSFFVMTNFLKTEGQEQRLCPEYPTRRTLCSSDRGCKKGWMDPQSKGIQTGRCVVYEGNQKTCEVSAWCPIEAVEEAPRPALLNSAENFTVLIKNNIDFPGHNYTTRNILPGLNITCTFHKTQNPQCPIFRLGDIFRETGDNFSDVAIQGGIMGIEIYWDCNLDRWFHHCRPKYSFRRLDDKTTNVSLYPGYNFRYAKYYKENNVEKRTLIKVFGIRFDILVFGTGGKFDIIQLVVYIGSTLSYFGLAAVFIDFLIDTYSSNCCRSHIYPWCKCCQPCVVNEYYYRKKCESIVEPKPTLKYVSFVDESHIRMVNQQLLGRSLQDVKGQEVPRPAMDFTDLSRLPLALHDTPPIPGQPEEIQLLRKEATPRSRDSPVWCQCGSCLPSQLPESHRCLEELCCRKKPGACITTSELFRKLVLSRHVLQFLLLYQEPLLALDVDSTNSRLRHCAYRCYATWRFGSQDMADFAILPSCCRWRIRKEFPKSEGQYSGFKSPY
Experimental: Ion currents mediated by P2X receptors were evoked by the indicated concentration of ATP or α,β-meATP and were recorded 1 or 2 days after cRNA injection at ambient temperature at a holding potential of −60 mV by two-electrode voltage clamp (TEVC) as previously described ([Hausmann et al., 2006]). Calcium-free ORi^− solution (90 mM NaCl, 1 mM KCl, 2 mM MgCl2, 10 mM HEPES, pH 7.4) was used to avoid bias due to calcium-activated chloride channels (CaCC) endogenously expressed in X. laevis oocytes ([Miledi, 1982]; [Methfessel et al., 1986]). For recordings of wt-hP2X7R, the composition of the ORi^− solution was modified according to protocols described previously and contained 100 mM NaCl, 2.5 mM KCl, 1 mM MgCl2, 5 mM HEPES, pH 7.4 ([Klapperstück et al., 2000]). The oocytes were continuously superfused with ORi^− by gravity flow (5–10 ml/min). The agonists ATP or α,β-meATP and the investigated NSAIDs were diluted in ORi^− on the day of the recording. The following agonist concentrations were used for the different P2X subtypes: 1 μM ATP (hP2X1R mutant, hP2X3R, rP2X3R, S^15V-hP2X3R, and S^15V-rP2X3R); 10 μM ATP (hP2X2R and hP2X4R); 300 μM free ATP^4- (hP2X7R); and 1 μM α,β-meATP (hP2X2/3R). A peak current protocol (Supplementary Figure S1) was used to analyze fast- and intermediate desensitizing P2XR subtypes (P2X1R, P2X3R, and S^15V-P2X3R), and a steady-state protocol (Supplementary Figure S2) was used for slowly or partially desensitizing P2X subtypes (P2X2R, P2X2/3R, and P2X4R). For recordings of P2X7R, a modified steady-state protocol was used ([Hausmann et al., 2006]). The application of different bath solutions was controlled by computer-operated magnetic valves controlled by the CellWorks E 5.5.1 software (npi electronic, Tamm, Germany).
In the case of hP2X7R, the control current in the absence of the antagonist had to be extrapolated (Supplementary Figure S4 and Supplementary Figure S5) presuming a linear increase in permeability during continuous ATP application ([North, 2002]) since the permeability of the receptor is affected by the antagonist.
For recordings of P2X7R, most scientists use divalent-free solutions such as ORi supplemented with 100 µM flufenamic acid (FFA) as an unselective ion channel blocker to inhibit non-specific chloride conductance in the absence of divalent ions ([Weber et al., 1995]; [Hülsmann et al., 2003]). However, since FFA is one of the investigated NSAIDs, this supplement was not reasonable. Therefore, the composition of the ORi-solution was modified as follows: 100 mM NaCl, 2.5 mM KCl, 1 mM MgCl2, 5 mM HEPES, pH 7.4, and according to former protocols ([Klapperstück et al., 2000]), a free ATP^4−concentration of 300 µM was adjusted.

[1] = cited from earlier work

reversibility of the effect on hP2X7R-mediated current responses (hP2X7R; slope of current before and after FFA application) | Compound | reduction of ATP4--induced current amplitude by 300 µM diclofenac (hP2X7R; 300 µM diclofenac, 300 µM free ATP4-) | IC50 (hP2X7R; 300 µM free ATP4-) [µM] | plasma levels, intramuscular injection ([1]; injected intramuscularly, ref Drago et al., 2017) | maximum plasma levels, oral ([1]; oral application of 50–75 mg diclofenac, ref Kurowski et al., 1994, Kienzler et al., 2010) | plasma levels, transdermal application ([1]; transdermal application, ref Efe et al., 2014) | plasma levels, transdermal, repetitive application ([1]; applied transdermally, even with repetitive application, ref Drago et al., 2017) [nM]
 | O=C(O)Cc1ccccc1Nc1c(Cl)cccc1Cl [Diclofenac, diclofenac] | approximately 33% | > 300 | approximately 1.8 μg/ml and ~6 μM | 2.3–2.6 μg/ml and 7–8 μM | low nanomolar | 
potentially irreversible | O=C(O)c1ccccc1Nc1cccc(C(F)(F)F)c1 [Flufenamic acid, flufenamic acid] |  | ~900 |  |  |  | ≤ 180
